Experimental data: PubChem BioAssay AID248 (DTP/NCI, 2004)
Toxic doses and inconclusive results are not listed.

System: L1210 leukemia ip in BDF1 mice, survival T/C
Test: NCI In Vivo Anticancer Drug Screen. Data for tumor model L1210 Leukemia (intraperitoneal) in B6D2F1 (BDF1) mice
Conditions: endpoint: mean survival time, higher = longer survival
Procedure, shortened: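 Tumor cells were implanted, animals were treated, and survival was followed. The result divides the treated measurement by the vehicle-control measurement.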

[1] = dose: 100.0 mg/kg/injection, schedule: Q04DX002 (ip), vehicle: Klucel (hydroxypropylcellulose) (HPC)
[2] = dose: 100.0 mg/kg/injection, schedule: Q01DX009 (ip), vehicle: Klucel (hydroxypropylcellulose) (HPC)

Compound: [Br][Bi]([Br])([c]1ccccc1)([c]1ccccc1)[c]1ccccc1
- T/C (dose: 12.5 mg/kg/injection, schedule: Q04DX002 (ip), vehicle: Klucel (hydroxypropylcellulose) (HPC)): 97 % of control
- T/C (dose: 25.0 mg/kg/injection, schedule: Q04DX002 (ip), vehicle: Klucel (hydroxypropylcellulose) (HPC)): 101 % of control
- T/C (dose: 50.0 mg/kg/injection, schedule: Q04DX002 (ip), vehicle: Klucel (hydroxypropylcellulose) (HPC)): 104 % of control
- T/C [1]: 97 % of control

Compound: CCc1ccc(C)[n+](C)c1
- T/C (dose: 75.0 mg/kg/injection, schedule: Q01DX001 (ip), vehicle: saline): 96 % of control
- T/C (dose: 150.0 mg/kg/injection, schedule: Q01DX001 (ip), vehicle: saline): 95 % of control

Compound: Nc1nc(SCc2ccccn2)c2[nH]cnc2n1
- T/C (dose: 45.0 mg/kg/injection, schedule: Q04DX003 (ip), vehicle: Klucel (hydroxypropylcellulose) (HPC)): 121 % of control
- T/C (dose: 65.0 mg/kg/injection, schedule: Q04DX003 (ip), vehicle: Klucel (hydroxypropylcellulose) (HPC)): 124 % of control
- T/C (dose: 400.0 mg/kg/injection, schedule: Q04DX003 (ip), vehicle: Klucel (hydroxypropylcellulose) (HPC)): 155 % of control

Compound: CC(Cc1ccccc1)NC(C#N)c1ccccc1 (configuration not stated)
- T/C (dose: 12.5 mg/kg/injection, schedule: Q01DX009 (ip), vehicle: Klucel (hydroxypropylcellulose) (HPC)): 107 % of control
- T/C (dose: 25.0 mg/kg/injection, schedule: Q01DX009 (ip), vehicle: Klucel (hydroxypropylcellulose) (HPC)): 88 % of control
- T/C (dose: 25.0 mg/kg/injection, schedule: Q04DX003 (ip), vehicle: Klucel (hydroxypropylcellulose) (HPC)): 98 % of control
- T/C (dose: 25.0 mg/kg/injection, schedule: Q04DX003 (ip), vehicle: saline with Tween-80): 97 % of control
- T/C (dose: 50.0 mg/kg/injection, schedule: Q01DX009 (ip), vehicle: Klucel (hydroxypropylcellulose) (HPC)): 91 % of control
- T/C (dose: 50.0 mg/kg/injection, schedule: Q04DX003 (ip), vehicle: Klucel (hydroxypropylcellulose) (HPC)): 109 % of control
- T/C (dose: 50.0 mg/kg/injection, schedule: Q04DX003 (ip), vehicle: saline with Tween-80): 100 % of control
- T/C [2]: 96 % of control
- T/C (dose: 100.0 mg/kg/injection, schedule: Q04DX003 (ip), vehicle: Klucel (hydroxypropylcellulose) (HPC)): 109 % of control
- T/C (dose: 100.0 mg/kg/injection, schedule: Q04DX003 (ip), vehicle: saline with Tween-80): 92 % of control
- T/C (dose: 200.0 mg/kg/injection, schedule: Q04DX003 (ip), vehicle: Klucel (hydroxypropylcellulose) (HPC)): 101 % of control

Compound: O=C(Nc1ccc(Cl)cc1)Nc1ccccc1Cl
- T/C (dose: 100.0 mg/kg/injection, schedule: Q01DX009 (ip), vehicle: gum acacia): 91 % of control
- T/C (dose: 100.0 mg/kg/injection, schedule: Q04DX003 (ip), vehicle: gum acacia): 100 % of control
- T/C (dose: 200.0 mg/kg/injection, schedule: Q01DX009 (ip), vehicle: gum acacia): 87 % of control
- T/C (dose: 200.0 mg/kg/injection, schedule: Q04DX003 (ip), vehicle: gum acacia): 96 % of control
- T/C (dose: 400.0 mg/kg/injection, schedule: Q01DX009 (ip), vehicle: gum acacia): 89 % of control
- T/C (dose: 400.0 mg/kg/injection, schedule: Q04DX003 (ip), vehicle: gum acacia): 102 % of control

Compound: OCC1=C(CO)C2(Cl)C(Cl)=C(Cl)C1(Cl)C2(Cl)Cl
- T/C [2]: 100 % of control
- T/C (dose: 100.0 mg/kg/injection, schedule: Q04DX003 (ip), vehicle: saline): 105 % of control
- T/C (dose: 200.0 mg/kg/injection, schedule: Q01DX009 (ip), vehicle: Klucel (hydroxypropylcellulose) (HPC)): 105 % of control
- T/C (dose: 200.0 mg/kg/injection, schedule: Q04DX003 (ip), vehicle: saline): 100 % of control
- T/C (dose: 400.0 mg/kg/injection, schedule: Q01DX009 (ip), vehicle: Klucel (hydroxypropylcellulose) (HPC)): 88 % of control
- T/C (dose: 400.0 mg/kg/injection, schedule: Q04DX003 (ip), vehicle: saline): 98 % of control

Compound: OCC1(O)OCC(O)C(O)C1O (configuration not stated)
- T/C (dose: 100.0 mg/kg/injection, schedule: Q01DX009 (ip), vehicle: saline): 89 % of control
- T/C (dose: 200.0 mg/kg/injection, schedule: Q01DX009 (ip), vehicle: saline): 94 % of control
- T/C (dose: 400.0 mg/kg/injection, schedule: Q01DX009 (ip), vehicle: saline): 90 % of control
- T/C (dose: 800.0 mg/kg/injection, schedule: Q01DX009 (ip), vehicle: saline): 90 % of control

Compound: O=C(CC(NC(=O)OCc1ccccc1)c1nn[nH]n1)OCc1ccccc1 (configuration not stated)
- T/C (dose: 100.0 mg/kg/injection, schedule: Q01DX009 (ip), vehicle: saline with Tween-80): 101 % of control
- T/C (dose: 200.0 mg/kg/injection, schedule: Q01DX009 (ip), vehicle: saline with Tween-80): 103 % of control
- T/C (dose: 400.0 mg/kg/injection, schedule: Q01DX009 (ip), vehicle: saline with Tween-80): 90 % of control

Compound: O=C(N/N=C/c1cccc2ccccc12)c1ccc(O)cc1
- T/C [1]: 100 % of control
- T/C (dose: 200.0 mg/kg/injection, schedule: Q04DX002 (ip), vehicle: Klucel (hydroxypropylcellulose) (HPC)): 100 % of control
- T/C (dose: 400.0 mg/kg/injection, schedule: Q04DX002 (ip), vehicle: Klucel (hydroxypropylcellulose) (HPC)): 103 % of control
